Results: the supplement of paper PMC10307832

Legend:
Test in all cases: relative viability (nuclei count vs DMSO), 5 days (fraction); higher = more cells survive
Halofuginone + Dasatinib = compound: O=C(C[C@H]1NCCC[C@@H]1O)Cn1cnc2cc(Br)c(Cl)cc2c1=O (racemic) [Halofuginone] + Cc1nc(Nc2ncc(C(=O)Nc3c(C)cccc3Cl)s2)cc(N2CCN(CCO)CC2)n1 [Dasatinib] (partner 0.075 µM)
How it was run: (§1)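 Lung cancer cell lines were pin-tool dosed in 1536-well plates on the day after seeding, with either a lone drug or a fixed anchor-drug dose plus five library-drug doses (not always all listed) in √10 steps. Nuclei were counted on 4× images after 5 days. Relative viability is the ratio of treated-well to vehicle-well nuclei counts, with each value a median of duplicate plates.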

Cediranib + Palbociclib = compound: COc1cc2c(Oc3ccc4[nH]c(C)cc4c3F)ncnc2cc1OCCCN1CCCC1 [Cediranib] + CC(=O)c1c(C)c2cnc(Nc3ccc(N4CCNCC4)cn3)nc2n(C2CCCC2)c1=O [Palbociclib] (partner 0.5 µM)
How it was run: as §1

Halofuginone + Alpelisib = compound: O=C(C[C@H]1NCCC[C@@H]1O)Cn1cnc2cc(Br)c(Cl)cc2c1=O (racemic) [Halofuginone] + Cc1nc(NC(=O)N2CCC[C@H]2C(N)=O)sc1-c1ccnc(C(C)(C)C(F)(F)F)c1 [Alpelisib] (partner 2 µM)
How it was run: as §1

Cediranib + Lapatinib = compound: COc1cc2c(Oc3ccc4[nH]c(C)cc4c3F)ncnc2cc1OCCCN1CCCC1 [Cediranib] + CS(=O)(=O)CCNCc1ccc(-c2ccc3ncnc(Nc4ccc(OCc5cccc(F)c5)c(Cl)c4)c3c2)o1 [Lapatinib] (partner 2 µM)
How it was run: as §1

Cell Line	relative viability (Halofuginone + Dasatinib; first compound 0.001 µM)	relative viability (Halofuginone + Dasatinib; first compound 0.003162 µM)	relative viability (Halofuginone + Dasatinib; first compound 0.01 µM)	relative viability (Halofuginone + Dasatinib; first compound 0.03162 µM)	relative viability (Halofuginone + Dasatinib; first compound 0.1 µM)	relative viability (Cediranib + Palbociclib; first compound 0.04 µM)	relative viability (Cediranib + Palbociclib; first compound 0.1265 µM)	relative viability (Cediranib + Palbociclib; first compound 0.4 µM)	relative viability (Cediranib + Palbociclib; first compound 1.265 µM)	relative viability (Cediranib + Palbociclib; first compound 4 µM)	relative viability (Halofuginone + Alpelisib; first compound 0.001 µM)	relative viability (Halofuginone + Alpelisib; first compound 0.003162 µM)	relative viability (Halofuginone + Alpelisib; first compound 0.01 µM)	relative viability (Halofuginone + Alpelisib; first compound 0.03162 µM)	relative viability (Halofuginone + Alpelisib; first compound 0.1 µM)	relative viability (Cediranib + Lapatinib; first compound 0.1265 µM)	relative viability (Cediranib + Lapatinib; first compound 0.4 µM)	relative viability (Cediranib + Lapatinib; first compound 1.265 µM)	relative viability (Cediranib + Lapatinib; first compound 4 µM)	relative viability (Cediranib + Lapatinib; first compound 0.04 µM)
COR-L 105	0.387	0.353	0.316	0.257	0.234	0.413	0.405	0.426	0.394	0.414	1.31	0.934	0.857	0.831	0.629	0.304	0.361	0.339	0.337	–
LU99A	0.743	0.584	0.453	0.53	0.392	0.422	–	0.361	0.408	0.518	0.553	0.488	0.538	0.475	0.326	–	0.936	0.877	1.06	1.14
H3255	0.429	0.317	0.357	0.328	0.334	0.322	0.322	0.316	0.308	0.334	0.664	0.619	0.558	0.683	0.606	0.228	0.271	0.246	0.254	0.272
NCI-H1734	0.52	0.558	0.436	0.449	0.293	0.322	0.348	0.383	0.356	0.305	0.685	0.679	0.674	0.612	0.452	0.989	1.07	0.826	1.21	0.913
NCI-H650	0.528	0.478	0.47	0.452	0.367	0.381	0.321	0.334	0.34	0.308	1.23	1.35	1.16	1.08	0.675	0.444	0.913	0.8	0.938	0.956
NCI-H1915	0.308	0.332	0.322	0.294	0.23	0.549	0.491	0.506	0.512	0.553	1.08	1.11	1.05	0.921	0.929	0.731	0.924	0.969	0.983	1.01
NCI-H2009	0.313	0.385	0.289	0.216	0.151	0.308	0.188	0.19	0.0997	0.211	1.23	1.2	1.12	0.969	0.393	0.239	0.94	0.899	1.15	0.882
NCI-H1651	0.526	0.494	0.377	0.258	0.162	0.534	0.551	0.499	0.523	0.527	0.906	0.9	0.889	0.66	0.278	0.919	0.825	0.668	0.855	0.819
HOP-62	0.641	0.75	0.737	0.545	0.369	0.482	0.517	0.409	0.426	0.486	0.992	1.03	0.902	1.04	0.423	–	0.879	1.01	1.35	1.15
CAL-12T	0.685	0.396	0.377	0.282	0.154	0.535	0.408	0.411	0.466	0.666	1.4	1.16	1.03	1.11	1.02	–	0.614	0.676	0.877	0.681
NCI-H3122	0.852	0.658	0.735	0.806	0.66	0.209	–	0.186	0.199	0.175	0.79	0.801	0.638	0.76	0.781	0.985	1.01	0.98	1.05	1.05
NCI-H1395	0.425	0.469	0.426	0.364	0.366	0.622	0.615	0.629	0.623	0.535	1.06	1.03	1.01	0.866	0.608	–	1.35	0.97	1.01	0.961
PC-14	0.259	0.305	0.189	0.0636	0.03	0.601	0.627	0.487	0.439	0.328	0.985	1.01	0.878	0.724	0.428	0.461	0.297	0.301	0.404	0.308
BEN	0.345	0.318	0.331	0.36	0.229	0.437	0.412	0.489	0.451	0.47	0.974	1.12	1.1	0.975	0.478	–	0.665	0.598	0.681	0.945
EPLC-272H	0.366	0.427	0.43	0.37	0.274	0.297	–	0.312	0.327	0.318	1.04	0.893	0.866	1.02	0.798	–	0.862	0.77	0.671	0.834
LK-2	0.318	0.329	0.328	0.251	0.26	0.998	0.693	0.687	0.764	0.724	0.949	1.13	1.02	1.14	0.926	0.728	0.842	0.952	0.732	1.01
HCC-827	0.249	0.415	0.31	0.493	0.359	0.559	0.54	0.433	0.629	0.424	0.98	0.959	0.908	1.07	0.815	–	0.178	0.194	0.208	0.203

Cell Line	relative viability (Halofuginone + Dasatinib; first compound 0.001 µM)	relative viability (Halofuginone + Dasatinib; first compound 0.003162 µM)	relative viability (Halofuginone + Dasatinib; first compound 0.01 µM)	relative viability (Halofuginone + Dasatinib; first compound 0.03162 µM)	relative viability (Halofuginone + Dasatinib; first compound 0.1 µM)	relative viability (Cediranib + Palbociclib; first compound 0.04 µM)	relative viability (Cediranib + Palbociclib; first compound 0.1265 µM)	relative viability (Cediranib + Palbociclib; first compound 0.4 µM)	relative viability (Cediranib + Palbociclib; first compound 1.265 µM)	relative viability (Cediranib + Palbociclib; first compound 4 µM)	relative viability (Halofuginone + Alpelisib; first compound 0.001 µM)	relative viability (Halofuginone + Alpelisib; first compound 0.003162 µM)	relative viability (Halofuginone + Alpelisib; first compound 0.01 µM)	relative viability (Halofuginone + Alpelisib; first compound 0.03162 µM)	relative viability (Halofuginone + Alpelisib; first compound 0.1 µM)	relative viability (Cediranib + Lapatinib; first compound 0.1265 µM)	relative viability (Cediranib + Lapatinib; first compound 0.4 µM)	relative viability (Cediranib + Lapatinib; first compound 1.265 µM)	relative viability (Cediranib + Lapatinib; first compound 4 µM)	relative viability (Cediranib + Lapatinib; first compound 0.04 µM)
NCI-H1993	0.619	0.558	0.562	0.532	0.434	–	0.634	0.64	0.656	0.637	0.696	0.677	0.664	0.711	0.57	0.675	0.815	0.755	0.887	0.8
NCI-H647	0.219	0.216	0.188	0.171	0.099	0.349	0.385	0.336	0.457	0.448	1.24	1.17	1.1	0.781	0.102	1.19	1.08	1.02	1.19	1.46
NCI-H460	0.571	0.542	0.445	0.349	0.157	0.196	0.175	0.21	0.161	0.202	0.62	0.495	0.464	0.214	0.0177	1.01	0.905	1	0.639	1.05
EMC-BAC-2	0.362	0.343	0.301	0.298	0.163	0.519	0.562	0.529	0.51	0.499	0.765	0.761	0.766	0.723	0.517	0.804	0.88	0.816	0.868	0.925
NCI-H23	0.862	0.86	0.891	0.741	0.472	0.585	0.601	0.547	0.429	0.56	0.548	0.725	0.643	0.814	0.224	–	1.21	0.881	1.38	0.977
NCI-H1793	0.374	0.37	0.418	0.468	0.296	0.306	0.277	0.3	0.271	0.311	0.687	0.666	0.623	0.722	0.396	0.693	0.654	–	0.742	0.838
A-427	0.744	0.773	0.678	0.723	0.643	0.524	–	0.481	0.458	0.502	1.07	1.14	1.05	0.978	0.94	–	0.938	0.897	0.981	1.03
ABC-1	0.586	0.626	0.453	0.476	0.487	0.766	1.04	0.538	0.853	0.426	1.2	0.936	1	0.947	1.03	1.39	1.14	1.06	1.24	1.24
NCI-H322M	0.27	0.26	0.251	0.208	0.212	0.46	0.589	0.464	0.492	0.524	0.516	0.879	0.777	0.802	0.768	0.915	0.562	0.617	0.52	0.578
COR-L23	0.617	0.481	0.535	0.311	0.083	0.282	0.349	0.279	0.353	0.263	0.808	0.823	0.754	0.635	0.118	0.899	0.895	0.892	1.32	1.1
NCI-H2085	0.252	0.226	0.259	0.269	0.237	0.5	0.48	0.469	0.473	0.466	0.901	0.98	0.943	0.873	0.623	0.791	0.839	0.725	0.774	0.846
NCI-H2087	0.834	1.16	0.9	0.808	0.522	0.243	0.24	0.249	0.182	0.224	1.12	0.98	1.14	0.935	0.612	0.825	1.01	0.984	1.07	1.08
HCC-366	0.709	0.804	0.684	0.66	0.414	0.451	0.404	0.366	0.411	0.262	0.369	0.412	0.449	0.385	0.197	0.479	0.983	0.957	1.23	1.08
NCI-H2126	0.661	0.663	0.635	0.562	0.405	0.349	0.358	0.359	0.349	0.314	0.71	0.74	0.696	0.734	0.698	0.595	0.715	0.55	0.741	0.749
SK-LU-1	0.204	0.211	0.198	0.183	0.137	0.434	0.441	0.385	0.375	0.383	1.14	1.13	1.02	0.888	0.247	0.743	0.851	0.836	1.07	1
HCC-78	0.44	0.364	0.357	0.4	0.503	0.55	–	0.507	0.53	0.592	0.409	0.327	0.299	0.374	0.215	0.703	0.634	0.662	0.695	1
